Measured values taken from PubChem BioAssay (NCI).
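Method: 48-hour compound exposure of cells in 96-well plates, five concentrations, linear interpolation of endpoints. GI50: concentration for 50% inhibition of growth. At the TGI there is no net growth.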

Tests used:
Test in all cases: DTP human tumour cell line panel, 48 h
[1] = test system: CAKI-1 renal
[2] = test system: SK-MEL-5 melanoma
[3] = test system: LOX IMVI melanoma
[4] = test system: SK-OV-3 ovarian
[5] = test system: SN12C renal
[6] = test system: HCT-15 colon
[7] = test system: A549 NSCLC
[8] = test system: SR leukemia
[9] = test system: NCI-H522 lung
[10] = test system: OVCAR-3 ovarian
[11] = test system: MDA-MB-231 breast
[12] = test system: MDA-MB-435
[13] = test system: HS 578T breast
[14] = test system: DU-145 prostate
[15] = test system: HCC-2998 colon
[16] = test system: IGROV1 ovarian
[17] = test system: UO-31 renal
[18] = test system: OVCAR-8 ovarian
[19] = test system: MDA-MB-468 breast
[20] = test system: RPMI-8226 leukemia
[21] = test system: MALME-3M melanoma
[22] = test system: EKVX NSCLC
[23] = test system: NCI/ADR-RES ovarian
[24] = test system: CCRF-CEM leukemia
[25] = test system: UACC-257 melanoma
[26] = test system: COLO 205 colon
[27] = test system: SF-295 CNS
[28] = test system: KM12 colon
[29] = test system: K-562 leukemia
[30] = test system: NCI-H460 lung
[31] = test system: ACHN renal
[32] = test system: MOLT-4 leukemia
[33] = test system: NCI-H226 lung
[34] = test system: HOP-92 NSCLC
[35] = test system: SK-MEL-28 melanoma
[36] = test system: PC-3 prostate
[37] = test system: 786-0 renal
[38] = test system: NCI-H23 lung
[39] = test system: SNB-75 CNS
[40] = test system: HT29 colon
[41] = test system: RXF 393 renal
[42] = test system: UACC-62 melanoma
[43] = test system: SF-539 CNS
[44] = test system: M14 melanoma
[45] = test system: SK-MEL-2 melanoma
[46] = test system: MCF7 breast
[47] = test system: OVCAR-4 ovarian
[48] = test system: SF-268 CNS
[49] = test system: SW-620 colon
[50] = test system: HL-60(TB) leukemia
[51] = test system: HOP-62 NSCLC
[52] = test system: U251 CNS
[53] = test system: A498 renal
[54] = test system: T-47D breast
[55] = test system: SNB-19 CNS
[56] = test system: BT-549 breast
[57] = test system: TK-10 renal
[58] = test system: OVCAR-5 ovarian
[59] = test system: HCT-116 colon

CN1CCN(c2ccc(Nc3nc(NCCCNC(=O)c4ccc(F)cc4)c4sccc4n3)cc2)CC1
GI50 [1]: 3.43 µM
TGI [1]: 15.2 µM
GI50 [2]: 2.08 µM
TGI [2]: 4.95 µM
GI50 [3]: 1.67 µM
TGI [3]: 3.31 µM
GI50 [4]: 16.5 µM
TGI [4]: 34.1 µM
GI50 [5]: 10.5 µM
TGI [5]: 23.3 µM
GI50 [6]: 2.31 µM
TGI [6]: 8.13 µM
GI50 [7]: 4.77 µM
TGI [7]: 22.2 µM
GI50 [8]: 1.71 µM
TGI [8]: 4.6 µM
GI50 [9]: 1.77 µM
TGI [9]: 3.92 µM
GI50 [10]: 3.52 µM
TGI [10]: 13.3 µM
GI50 [11]: 4.15 µM
TGI [11]: 14.5 µM
GI50 [12]: 4.3 µM
TGI [12]: 16.1 µM
GI50 [13]: 6.09 µM
TGI [13]: 32.2 µM
GI50 [14]: 7.65 µM
TGI [14]: 21 µM
GI50 [15]: 3.38 µM
TGI [15]: 11.9 µM
GI50 [16]: 5.98 µM
TGI [16]: 19.9 µM
GI50 [17]: 11.7 µM
TGI [17]: 23.9 µM
GI50 [18]: 4.14 µM
TGI [18]: 51.2 µM
GI50 [19]: 1.46 µM
TGI [19]: 4.82 µM
GI50 [20]: 1.79 µM
TGI [20]: 4.25 µM
GI50 [21]: 1.79 µM
TGI [21]: 3.2 µM
GI50 [22]: 12.4 µM
TGI [22]: 25.5 µM
GI50 [23]: 4.18 µM
TGI [23]: 24.9 µM
GI50 [24]: 1.92 µM
TGI [24]: 4.99 µM
GI50 [25]: 2.14 µM
TGI [25]: 4.94 µM
GI50 [26]: 5.29 µM
TGI [26]: 20.5 µM
GI50 [27]: 1.83 µM
TGI [27]: 4.2 µM
GI50 [28]: 4.32 µM
TGI [28]: 18.2 µM
GI50 [29]: 1.41 µM
TGI [29]: 4.72 µM
GI50 [30]: 3.25 µM
TGI [30]: 12.8 µM
GI50 [31]: 3.04 µM
TGI [31]: 13.2 µM
GI50 [32]: 1.67 µM
TGI [32]: 5.38 µM
GI50 [33]: 11.3 µM
TGI [33]: 23.9 µM
GI50 [34]: 7.45 µM
TGI [34]: 28.2 µM
GI50 [35]: 1.77 µM
TGI [35]: 3.45 µM
GI50 [36]: 3.19 µM
TGI [36]: 16.6 µM
GI50 [37]: 1.91 µM
TGI [37]: 5.45 µM
GI50 [38]: 10.3 µM
TGI [38]: 24.9 µM
GI50 [39]: 7.14 µM
TGI [39]: 21.5 µM
GI50 [40]: 2.46 µM
TGI [40]: 7.78 µM
GI50 [41]: 1.45 µM
TGI [41]: 3.25 µM
GI50 [42]: 2.04 µM
TGI [42]: 4.58 µM
GI50 [43]: 1.69 µM
TGI [43]: 3.16 µM
GI50 [44]: 1.83 µM
TGI [44]: 3.59 µM
GI50 [45]: 14.5 µM
TGI [45]: 28.3 µM
GI50 [46]: 2.67 µM
TGI [46]: 11.1 µM
GI50 [47]: 5.84 µM
TGI [47]: 29.5 µM
GI50 [48]: 4.38 µM
TGI [48]: 22.4 µM
GI50 [49]: 3.04 µM
TGI [49]: 10.2 µM
GI50 [50]: 1.52 µM
TGI [50]: 3.39 µM
GI50 [51]: 16.4 µM
TGI [51]: 35.7 µM
GI50 [52]: 3.01 µM
TGI [52]: 10.5 µM
GI50 [53]: 18.8 µM
TGI [53]: 32.8 µM
GI50 [54]: 2.64 µM
TGI [54]: 13.7 µM
GI50 [55]: 7.97 µM
TGI [55]: 20.6 µM
GI50 [56]: 4.39 µM
TGI [56]: 16.7 µM
GI50 [57]: 5.55 µM
TGI [57]: 17.7 µM
GI50 [58]: 11.7 µM
TGI [58]: 26 µM

COc1cccc(/C=C/c2nc3ccccc3c(=O)n2CC(=O)Nc2ccccc2)c1
GI50 [1]: 4.31 µM
TGI [1]: 30.1 µM
GI50 [2]: 59.3 µM
TGI [2]: > 100 µM
GI50 [3]: 5.94 µM
TGI [3]: > 100 µM
GI50 [4]: 5.87 µM
TGI [4]: 40.9 µM
GI50 [5]: 6.58 µM
TGI [5]: > 100 µM
GI50 [6]: 39.9 µM
TGI [6]: > 100 µM
GI50 [7]: 3.81 µM
TGI [7]: > 100 µM
GI50 [8]: > 100 µM
TGI [8]: > 100 µM
GI50 [9]: 31.6 µM
TGI [9]: > 100 µM
GI50 [10]: 17.6 µM
TGI [10]: > 100 µM
GI50 [11]: 5.97 µM
TGI [11]: 20.7 µM
GI50 [12]: > 100 µM
TGI [12]: > 100 µM
GI50 [13]: 5.91 µM
TGI [13]: > 100 µM
GI50 [14]: > 100 µM
TGI [14]: > 100 µM
GI50 [15]: > 100 µM
TGI [15]: > 100 µM
GI50 [16]: 39.1 µM
TGI [16]: > 100 µM
GI50 [17]: 2.89 µM
TGI [17]: 14.1 µM
GI50 [18]: 18.8 µM
TGI [18]: > 100 µM
GI50 [19]: 9.17 µM
TGI [19]: > 100 µM
GI50 [20]: > 100 µM
TGI [20]: > 100 µM
GI50 [21]: 12.1 µM
TGI [21]: 65.7 µM
GI50 [22]: > 100 µM
TGI [22]: > 100 µM
GI50 [23]: 7.72 µM
TGI [23]: 64.9 µM
GI50 [24]: > 100 µM
TGI [24]: > 100 µM
GI50 [25]: > 100 µM
TGI [25]: > 100 µM
GI50 [26]: > 100 µM
TGI [26]: > 100 µM
GI50 [27]: 5.23 µM
TGI [27]: 28.6 µM
GI50 [28]: > 100 µM
TGI [28]: > 100 µM
GI50 [29]: > 100 µM
TGI [29]: > 100 µM
GI50 [30]: 12.6 µM
TGI [30]: > 100 µM
GI50 [31]: 3.47 µM
TGI [31]: 12.5 µM
GI50 [32]: > 100 µM
TGI [32]: > 100 µM
GI50 [33]: 3.22 µM
TGI [33]: 15.2 µM
GI50 [34]: 11 µM
TGI [34]: 51.3 µM
GI50 [35]: 61.4 µM
TGI [35]: > 100 µM
GI50 [36]: > 100 µM
TGI [36]: > 100 µM
GI50 [37]: 3.08 µM
TGI [37]: 12.6 µM
GI50 [38]: 8.91 µM
TGI [38]: 49.3 µM
GI50 [39]: 3.15 µM
TGI [39]: 18.1 µM
GI50 [40]: > 100 µM
TGI [40]: > 100 µM
GI50 [41]: 4.23 µM
TGI [41]: 50.9 µM
GI50 [42]: 88.5 µM
TGI [42]: > 100 µM
GI50 [43]: 7.51 µM
TGI [43]: 28.5 µM
GI50 [44]: 12.5 µM
TGI [44]: 56.6 µM
GI50 [45]: > 100 µM
TGI [45]: > 100 µM
GI50 [46]: 27 µM
TGI [46]: > 100 µM
GI50 [47]: 6.87 µM
TGI [47]: > 100 µM
GI50 [48]: 36.8 µM
TGI [48]: > 100 µM
GI50 [49]: > 100 µM
TGI [49]: > 100 µM
GI50 [50]: > 100 µM
TGI [50]: > 100 µM
GI50 [51]: 3.89 µM
TGI [51]: 14.4 µM
GI50 [52]: 4.87 µM
TGI [52]: 19 µM
GI50 [53]: 3.2 µM
TGI [53]: 14.5 µM
GI50 [54]: 2.76 µM
TGI [54]: 18.6 µM
GI50 [55]: 21.7 µM
TGI [55]: > 100 µM
GI50 [56]: > 100 µM
TGI [56]: > 100 µM
GI50 [57]: 9.51 µM
TGI [57]: 30 µM
GI50 [59]: 5.48 µM
TGI [59]: 56 µM
GI50 [58]: 19.3 µM
TGI [58]: > 100 µM
